Measurements reported in patent publication US5459063A, “Plasmodium falciparum ribonucleotide reductase DNA” (priority 1993, dated 1995).
Like-named read-outs stand apart in the source and are kept apart here. Square brackets hold non-standard residues; d marks the D form. Ends that are not written are not given here. Peptide text beside a SMILES is read from it. Phe(4-N3) = [N-]=[N+]=Nc1ccc(C[C@H](N)C(=O)O)cc1; Phe(4-NH2) = Nc1ccc(C[C@H](N)C(=O)O)cc1

B1: Ac-(FTLDAAF) (peptide)
peptide: Ac-FTLDAAF
B2: Ac-(FTLNADF) (peptide)
peptide: Ac-FTLNADF
B3: Ac-(LDADF) (peptide)
peptide: Ac-LDADF
B4: Ac-(FTLAADF) (peptide)
peptide: Ac-FTLAADF
B5: Ac-(FTLDLDF) (peptide)
peptide: Ac-FTLDLDF
B6: Ac-(FTLDDF) (3 pos. del.) (peptide)
peptide: Ac-FTLDDF
B7: Ac-(TLDADF) (peptide)
peptide: Ac-TLDADF
B8: Ac-(FTLDAEF) (peptide)
peptide: Ac-FTLDAEF
B9: Ac-(FALDADF) (peptide)
peptide: Ac-FALDADF
B10: Ac-(F(4'-NH2)TLDADF) (peptide)
peptide: Ac-[Phe(4-NH2)]TLDADF
B11: FTLDADF (peptide)
peptide: FTLDADF
B12: Ac-(FTLDF) (3 & 4 pos. del.) (peptide)
peptide: Ac-FTLDF
B13: Ac-(F(4'-N3)TLDADF) (peptide)
peptide: Ac-[Phe(4-N3)]TLDADF
B14: Ac-(…) (peptide)
peptide: Ac-NSFTLDADF
B15: Ac-(FSLDADF) (peptide)
peptide: Ac-FSLDADF
B16: Ac-(FLDADF) (6 pos. del.) (peptide)
peptide: Ac-FLDADF
B17: Ac-(FTLDADL) (peptide)
peptide: Ac-FTLDADL
B18: Ac-(FTADADF) (peptide)
peptide: Ac-FTADADF
B19: Ac-(LTLDADF) (peptide)
peptide: Ac-LTLDADF
B20: Ac-(…) (peptide)
peptide: Ac-FTLDADFAA
B21: Ac-(FTLDGDF) (peptide)
peptide: Ac-FTLDGDF
B22: Ac-(FTLDANF) (peptide)
peptide: Ac-FTLDANF
B23: Ac-(SFTLDADF) (peptide)
peptide: Ac-SFTLDADF
B24: Ac-(FTVDADF) (peptide)
peptide: Ac-FTVDADF

Legend:
[1] = molecular target: T1, calf thymus/mouse ribonucleotide reductase (mammalian RR) (Bos taurus, UniProt Q32LP1); assay: biochemical; conditions: for Percent RI (percent relative inhibitory potency): 100 × (IC50 Ac(FTLDADF)/IC50 peptide analog)
T1 sequence (Q32LP1 1-791): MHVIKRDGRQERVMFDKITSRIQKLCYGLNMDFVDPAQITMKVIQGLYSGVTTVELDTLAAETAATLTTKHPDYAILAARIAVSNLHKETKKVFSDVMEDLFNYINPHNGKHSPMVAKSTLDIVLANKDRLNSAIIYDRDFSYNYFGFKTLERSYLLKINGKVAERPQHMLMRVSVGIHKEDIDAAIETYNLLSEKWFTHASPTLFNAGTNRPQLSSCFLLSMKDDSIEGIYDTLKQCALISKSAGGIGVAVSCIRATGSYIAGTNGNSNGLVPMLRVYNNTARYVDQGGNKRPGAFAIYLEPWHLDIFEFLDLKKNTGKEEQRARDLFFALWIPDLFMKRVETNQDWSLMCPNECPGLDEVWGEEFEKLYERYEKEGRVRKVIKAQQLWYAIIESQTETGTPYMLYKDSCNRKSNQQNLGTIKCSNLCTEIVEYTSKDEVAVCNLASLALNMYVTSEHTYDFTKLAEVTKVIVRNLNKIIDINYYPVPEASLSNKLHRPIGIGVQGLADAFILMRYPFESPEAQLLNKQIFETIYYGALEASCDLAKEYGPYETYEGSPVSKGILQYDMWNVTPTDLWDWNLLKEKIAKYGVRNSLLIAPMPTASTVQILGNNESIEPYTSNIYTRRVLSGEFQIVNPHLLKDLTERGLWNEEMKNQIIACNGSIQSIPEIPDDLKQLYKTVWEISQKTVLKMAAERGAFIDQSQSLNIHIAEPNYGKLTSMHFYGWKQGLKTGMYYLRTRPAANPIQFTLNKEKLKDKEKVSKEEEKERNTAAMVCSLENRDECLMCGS
Text: From two to four assays were run

Molecule | IC50 [1] | Percent RI (percent relative inhibitory potency) ([1]; Table 4, mammalian RR) | Percent RI (percent relative inhibitory potency), mammalian RR activity (calf thymus R1 (calf)) | further results
Ac-FSLDADF [Peptide 11, Ac- (FSLDADF)] | 40 to 42 µM | 25 ± 1.1% |  | 
Ac-FTVDADF [Peptide 13, Ac- (FTVDADF)] | 30 µM | 35% |  | 
Ac-FTLDAEF [Peptide 20, Ac- (FTLDAEF)] | 450 to 620 µM | 1.7 ± 0.15% |  | 
Ac-FTLDGDF [Peptide 18, Ac- (FTLDGDF)] | 110 to 230 µM | 9 ± 0.6% |  | 
Ac-FALDADF [Peptide 12, Ac- (FALDADF)] | 35 to 40 µM | 24 ± 4.1% |  | 
FTLDADF [Peptide 5, FTLDADF] | > 400 µM | < 3% |  | 
Ac-(FTFTADF) (peptide) |  |  | 18% | 
Ac-FTLDADFAA [Peptide 28] | 500 µM | 2.1% |  | 
CC(=O)N[C@@H](Cc1ccc(N)cc1)C(=O)N[C@H](C(=O)N[C@@H](CC(C)C)C(=O)N[C@@H](CC(=O)O)C(=O)N[C@@H](C)C(=O)N[C@@H](CC(=O)O)C(=O)N[C@@H](Cc1ccccc1)C(=O)O)[C@@H](C)O [Peptide 9, Ac- (F(4'-NH2)TLDADF)] (Ac-[Phe(4-NH2)]TLDADF-OH) | 100 µM | 10% |  | 
Ac-FTLAADF [Peptide 17, Ac- (FTLAADF)] | 286 to 336 µM | 2.9 ± 0.4% |  | 
Ac-SFTLDADF [Peptide 2] | 8 to 20 µM | 100% |  | 
Ac-FTLDAAF [Peptide 23, Ac- (FTLDAAF)] | 34 to 35 µM | 28 ± 1.3% |  | 
SFTLDADF (peptide) |  |  | 25% | IC50, inhibition of mammalian RR activity (calf thymus R1 (calf)): 80 µM
Ac-FTLDLDF [Peptide 19, Ac- (FTLDLDF)] | 28 µM | 35% |  | 
Ac-FTLNADF [Peptide 16, Ac- (FTLNADF)] | 25 to 29 µM | 40 ± 2.4% |  | 
Ac-FTLDANF [Peptide 21, Ac- (FTLDANF)] | 32 to 38 µM | 23 ± 1.0% |  | 
Ac-LTLDADF [Peptide 8, Ac- (LTLDADF)] | > 400 µM | < 3% |  | 
Ac-FTLDALF [Peptide 22, Ac- (FTLDALF)] | 29 to 30 µM | 35 ± 5.0% |  | 
SFTLDADF [Peptide 3] | 80 µM | 25% |  | 

Molecule | IC50 [1] | Percent RI (percent relative inhibitory potency) ([1]; Table 4, mammalian RR) | Percent RI (percent relative inhibitory potency), mammalian RR activity (calf thymus R1 (calf)) | further results
Ac-FLDADF [Peptide 25, Ac- (FLDADF)] | 412 µM | 2.5% |  | 
CC(=O)N[C@@H](Cc1ccc(N=[N+]=[N-])cc1)C(=O)N[C@H](C(=O)N[C@@H](CC(C)C)C(=O)N[C@@H](CC(=O)O)C(=O)N[C@@H](C)C(=O)N[C@@H](CC(=O)O)C(=O)N[C@@H](Cc1ccccc1)C(=O)O)[C@@H](C)O [Peptide 10, Ac- (F(4'-N3)TLDADF)] (Ac-[Phe(4-N3)]TLDADF-OH) | 100 µM | 10% |  | 
Ac- (FTFTADF) [Peptide 14] |  | 18 ± 4.2% |  | IC50 ([1]; read-out: IC50, concentration of peptide producing 50% inhibition of activity, Table 4, mammalian RR, Dixon plots of 4-6 concentration points, ranges are two independent determinations on different days): 48 to 58 µM
Ac-LDADF [Peptide 7, Ac- (LDADF)] | > 400 µM | < 3% |  | 
Ac-FTFNEDF [Peptide 30, Ac- (FTFNEDF)] | 100 µM |  |  | 
Ac-FTLDDF [Peptide 26, Ac- (FTLDDF)] | 322 µM | 3% |  | 
Ac-FTADADF [Peptide 15, Ac- (FTADADF)] | 207 µM | 4.9 ± 0.60% |  | 
Ac-FTLDF [Peptide 27, Ac- (FTLDF)] | 364 to 460 µM | 2.5 ± 0.18% |  | 
Ac-TLDADF [Peptide 6, Ac- (TLDADF)] | > 400 µM | < 3% |  | 
Ac-FCLNTEF [Ac-(SEQ ID NO:7), Ac- (FCLNTEF)] |  |  |  | IC50 ([1]; IC50 on mammalian RR activity, Example 54 text, peptide bound to purified calf thymus R1 before adding recombinant mouse R2): 160 µM; times less potent an inhibitor on mammalian RR activity than Ac-(SEQ ID NO:6) ([1]; relative to Ac-(SEQ ID NO:6)): 8-16 times
Ac-FTLDADL [Peptide 24, Ac- (FTLDADL)] | > 400 µM | < 3% |  | 
Ac-(FTLDALF) (peptide) |  |  | 35% | 
Ac-NSFTLDADF [Peptide 1] | 9 to 15 µM | 100% |  | 
B1 |  |  | 28% | 
B2 |  |  | 40% | 
B3 |  |  | < 3% | IC50, inhibition of mammalian RR activity (calf thymus R1 (calf)): > 400 µM
B4 |  |  | 2.9% | 
B5 |  |  | 35% | IC50, inhibition of mammalian RR activity (calf thymus R1 (calf)): 28 µM
B6 |  |  | 3% | IC50, inhibition of mammalian RR activity (calf thymus R1 (calf)): 322 µM

Molecule | IC50 [1] | Percent RI (percent relative inhibitory potency) ([1]; Table 4, mammalian RR) | Percent RI (percent relative inhibitory potency), mammalian RR activity (calf thymus R1 (calf)) | further results
B7 |  |  | < 3% | IC50, inhibition of mammalian RR activity (calf thymus R1 (calf)): > 400 µM
B8 |  |  | 1.7% | 
B9 |  |  | 24% | 
B10 |  |  | 10% | IC50, inhibition of mammalian RR activity (calf thymus R1 (calf)): 100 µM
B11 |  |  | < 3% | IC50, inhibition of mammalian RR activity (calf thymus R1 (calf)): > 400 µM
B12 |  |  | 2.5% | 
B13 |  |  | 10% | IC50, inhibition of mammalian RR activity (calf thymus R1 (calf)): 100 µM
B14 |  |  | 100% | 
B15 |  |  | 25% | 
B16 |  |  | 2.5% | IC50, inhibition of mammalian RR activity (calf thymus R1 (calf)): 412 µM
B17 |  |  | < 3% | IC50, inhibition of mammalian RR activity (calf thymus R1 (calf)): > 400 µM
B18 |  |  | 4.9% | IC50, inhibition of mammalian RR activity (calf thymus R1 (calf)): 207 µM
B19 |  |  | < 3% | IC50, inhibition of mammalian RR activity (calf thymus R1 (calf)): > 400 µM
B20 |  |  | 2.1% | IC50, inhibition of mammalian RR activity (calf thymus R1 (calf)): 500 µM
B21 |  |  | 9% | 
B22 |  |  | 23% | 
B23 |  |  | 100% | 
B24 |  |  | 35% | IC50, inhibition of mammalian RR activity (calf thymus R1 (calf)): 30 µM
